{"source": "paper PMC6158019", "about": "(Cancer cell, 2018)", "key": {"[1]": {"tested_on": "RMS cell lines (RD cells)", "test": "Cell cycle", "format": "cell-based, human", "details": "1 μM AZD1775, 24 or 48 hr"}, "[2]": {"tested_on": "RMS orthotopic xenografts SJRHB000026_X1, SJRHB012_Y, SJRHB013757_X2, SJRHB013759_X1", "format": "in vivo, mouse", "details": "single-agent groups"}, "[3]": {"tested_on": "RMS cell lines and primary cultures of O-PDX cells", "test": "General drug screening", "format": "cell-based, human", "details": "for in vitro activity in RMS O-PDX drug screening: primary cultures of RMS O-PDXs and cell lines"}, "[4]": {"details": "ref Patnaik et al., 2016, cited from earlier work"}, "[5]": {"details": "abemaciclib, mice; ref Raub et al., 2015; cited from earlier work"}, "[6]": {"details": "mouse, in vivo"}, "[7]": {"test": "Abemaciclib plasma and tumor PK in tumor-bearing mice", "details": "female, athymic nude, mouse, po, 50 mg/kg"}, "RMS O-PDXs": {"tested_on": "RMS O-PDXs", "details": "previous preclinical phase 2 studies; ref Stewart et al., 2017; cited from earlier work"}, "[8]": {"details": "species not stated; cited from earlier work"}, "[9]": {"test": "Preclinical phase 1 tolerability study", "details": "GSP 10 mg/kg, AZD1775 60 mg/kg twice daily, in combination regimens"}, "[10]": {"details": "ref Goldman et al., 2013, cited from earlier work"}, "[11]": {"test": "Ganetespib plasma and tumor PK in tumor-bearing mice", "format": "in vivo, mouse", "details": "for half-life: female, athymic nude, mouse, iv, 150 mg/kg"}, "in vivo [12]": {"test": "in vivo", "details": "female, athymic nude"}, "[13]": {"details": "ref palbociclib FDA NDA reviews, cited from earlier work"}, "[14]": {"test": "Palbociclib human plasma PK", "format": "in vivo", "details": "patients, 125 mg PO QD, standard calculations"}, "[15]": {"details": "mice, ref Parrish et al., 2015; cited from earlier work"}, "in vivo [16]": {"test": "in vivo", "details": "female, athymic nude, mouse, po, 0.1 mg/kg"}, "[17]": {"details": "cited from earlier work; for mean plasma CL/F: population PK"}, "[18]": {"test": "Trametinib human plasma PK", "format": "in vivo", "details": "patients, standard calculations"}}, "note": "Where two headings read alike, the source gives them in different places."}
{"compound": "C=CCn1c(=O)c2cnc(Nc3ccc(N4CCN(C)CC4)cc3)nc2n1-c1cccc(C(C)(C)O)n1", "note": "[AZD1775]", "values": [{"measurement": "cell cycle and nuclear effects", "setting": "[1]", "value": "G2/M phase arrest, mitotic catastrophe, and nuclear fragmentation"}, {"measurement": "overall survival compared with placebo", "setting": "[2]", "value": "not different from placebo"}, {"measurement": "in vitro activity in RMS O-PDX drug screening", "setting": "[3]", "value": "significant in vitro activity"}]}
{"compound": "CCN1CCN(Cc2ccc(Nc3ncc(F)c(-c4cc(F)c5nc(C)n(C(C)C)c5c4)n3)nc2)CC1", "note": "[abemaciclib]", "values": [{"measurement": "geometric mean total plasma AUCtau at steady state", "setting": "[4]; 200 mg PO BID", "value": 3000, "unit": "ng·h/mL"}, {"measurement": "geometric mean trough concentration", "setting": "[4]; 200 mg PO BID", "value": 197, "unit": "ng/mL"}, {"measurement": "maximum tolerated dose (MTD)", "setting": "[4]; Phase 1, single agent, continuous", "value": 200, "unit": "mg PO BID"}, {"measurement": "mean in vitro fraction unbound in the plasma (Fu,p)", "setting": "[5]", "value": 0.054}, {"measurement": "rounded and recommended MED", "setting": "[6]; female, athymic nude", "value": "7.5-15 mg/kg PO BID"}, {"measurement": "plasma AUC lower than that reported by Tate", "setting": "[6]; female, athymic nude, po, 50 mg/kg", "value": "~ 3.8 fold"}, {"measurement": "murine equivalent dose (MED) providing a similar total plasma AUC", "setting": "[6]", "value": 14.4, "unit": "mg/kg"}, {"measurement": "half-life", "setting": "[7]; plasma", "value": 312, "unit": "min"}, {"measurement": "half-life", "setting": "[7]; tumor", "value": 359, "unit": "min"}]}
{"compound": "CC(C)C[C@H](NC(=O)[C@H](Cc1ccccc1)NC(=O)c1cnccn1)B(O)O", "note": "[bortezomib]", "values": [{"measurement": "efficacy in vivo", "setting": "RMS O-PDXs", "value": "failed to show efficacy in vivo"}]}
{"compound": "CC(C)c1cc(-c2n[nH]c(=O)n2-c2ccc3c(ccn3C)c2)c(O)cc1O", "note": "[ganetespib]", "values": [{"measurement": "plasma protein binding", "setting": "[8]", "value": "high"}, {"measurement": "tolerability", "setting": "[9]", "value": "well tolerated in all groups"}, {"measurement": "recommended Phase 2 dose (RP2D)", "setting": "[10]; IV once weekly for 3 weeks of a 4-week cycle", "value": 200, "unit": "mg/m^2"}, {"measurement": "estimated human total plasma AUCinf", "setting": "[10]; at 200 mg/m^2", "value": "approximately 7000 hr-ng/mL"}, {"measurement": "major adverse events", "setting": "[10]; patients", "value": "diarrhea and fatigue"}, {"measurement": "increase in plasma Cmax for a 3-fold increase in dose", "setting": "[11]; 50 to 150 mg/kg IV, 10 min after injection, data not shown", "value": "~17", "unit": "fold"}, {"measurement": "half-life", "setting": "[11]; plasma", "value": 122, "unit": "min"}, {"measurement": "half-life", "setting": "[11]; tumor", "value": 505, "unit": "min"}, {"measurement": "murine equivalent dose (MED) providing a similar total plasma AUCinf", "setting": "[11]; vs human 200 mg/m^2", "value": 12.8, "unit": "mg/kg"}, {"measurement": "overall survival compared with placebo", "setting": "[2]", "value": "not different from placebo"}, {"measurement": "sensitivity of RMS cells relative to other pediatric solid tumors", "setting": "[3]; RMS cell lines and primary cultures of O-PDX cells", "value": "more sensitive"}, {"measurement": "in vitro activity in RMS O-PDX drug screening", "setting": "[3]", "value": "significant in vitro activity"}]}
{"compound": "CC(=O)c1c(C)c2cnc(Nc3ccc(N4CCNCC4)cn3)nc2n(C2CCCC2)c1=O", "note": "[palbociclib]", "values": [{"measurement": "back-estimated mouse plasma Cavg", "setting": "in vivo [12]; 10 mg/kg", "value": 76.9, "unit": "ng/mL"}, {"measurement": "murine equivalent dose (MED)", "setting": "in vivo [12]; mouse", "value": 10, "unit": "mg/kg"}, {"measurement": "CL/F", "setting": "in vivo [12]; mouse, po, 16 mg/kg", "value": 91.2, "unit": "mL/min/kg"}, {"measurement": "Kp", "setting": "in vivo [12]; mouse, po, 16 mg/kg", "value": "~6"}, {"measurement": "half-life", "setting": "in vivo [12]; mouse, po, 16 mg/kg", "value": 157, "unit": "min"}, {"measurement": "estimated total plasma AUCtau at steady state", "setting": "[13]; patients, 125 mg PO QD", "value": 2080, "unit": "ng·h/mL"}, {"measurement": "mean plasma CL/F", "setting": "[13]; typical patient, population PK", "value": 60.2, "unit": "L/h"}, {"measurement": "estimated total plasma Cavg,ss", "setting": "[14]", "value": "about 85 ng/mL"}, {"measurement": "apparent terminal half-life (T1/2), literature", "setting": "[15]", "value": "approximately 3.4 hr"}]}
{"compound": "Cc1[nH]c2ccccc2c1CCNCc1ccc(/C=C/C(=O)NO)cc1", "note": "[panobinostat]", "values": [{"measurement": "efficacy in vivo", "setting": "RMS O-PDXs", "value": "failed to show efficacy in vivo"}]}
{"compound": "CC(=O)Nc1cccc(-n2c(=O)n(C3CC3)c(=O)c3c(Nc4ccc(I)cc4F)n(C)c(=O)c(C)c32)c1", "note": "[trametinib]", "values": [{"measurement": "Kp", "setting": "in vivo [16]", "value": 5.49}, {"measurement": "mean AUC", "setting": "[17]; across genders, 2 mg PO QD, ref Ouellet et al., 2016", "value": 365, "unit": "ng·h/mL"}, {"measurement": "maximum tolerated dose (MTD)", "setting": "[17]; putative single agent", "value": 2, "unit": "mg PO QD"}, {"measurement": "mean plasma CL/F", "setting": "[17]; typical female patient, ref Ouellet et al., 2016", "value": 4.91, "unit": "L/h"}, {"measurement": "mean plasma CL/F", "setting": "[17]; typical male patient, ref Ouellet et al., 2016", "value": 6.19, "unit": "L/h"}, {"measurement": "estimated total plasma Cavg,ss", "setting": "[18]", "value": "about 15.1 ng/mL"}]}
